The Kd is a measure of binding affinity in units of concentration. A low value points to tighter binding.

Structures are written as SMILES.

Chain of JAK2 (JH1 domain-catalytic, Y1007F, Y1008F) kinase (O60674 849-1124 Y1007F/Y1008F): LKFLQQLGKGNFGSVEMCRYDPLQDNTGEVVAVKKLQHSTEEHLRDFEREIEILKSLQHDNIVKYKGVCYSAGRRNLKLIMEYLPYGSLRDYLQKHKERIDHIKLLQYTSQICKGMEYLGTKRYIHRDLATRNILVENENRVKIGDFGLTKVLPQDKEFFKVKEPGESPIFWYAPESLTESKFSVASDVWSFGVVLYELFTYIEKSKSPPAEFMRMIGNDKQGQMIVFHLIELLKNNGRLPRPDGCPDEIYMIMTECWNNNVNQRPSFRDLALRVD

This experiment has as its target JAK2 (JH1 domain-catalytic, Y1007F, Y1008F) kinase (Homo sapiens (Human), UniProt O60674, Y1007F/Y1008F). In words: JAK2 JH1 Domain Binding Assay. Conditions: qPCR readout. The method, then:
JAK2 (JH1 domain-catalytic, Y1007F, Y1008F) kinase was expressed as N-terminal fusion to the DNA binding domain of NFkB in transiently transfected HEK293 cells and subsequently tagged with DNA for qPCR detection. Streptavidin-coated magnetic beads were treated with biotinylated small molecule ligands for 30 minutes at room temperature to generate affinity resins for kinase assays. The liganded beads were blocked with excess biotin and washed with blocking buffer (SeaBlock (Pierce), 1% BSA, 0.05% Tween 20, 1 mmol/L DTT) to remove unbound ligand and to reduce nonspecific phage binding. Binding reactions were assembled by combining kinases, liganded affinity beads, and test compounds in 1× binding buffer (1× PBS, 0.05% Tween 20, 0.1% BSA, 1 mmol/L DTT). Test compound was prepared as 111× stocks in 100% DMSO and directly diluted into the assay wells. All reactions were performed in polypropylene 384-well plates in a final volume of 0.02 mL. The assay plates were incubated at room temperature with shaking for 1 hour and the affinity beads were washed with wash buffer (1× PBS, 0.05% Tween 20). The beads were then re-suspended in elution buffer (1× PBS, 0.05% Tween 20, 0.5 μmol/L non-biotinylated affinity ligand) and incubated at room temperature with shaking for 30 minutes. The kinase concentration in the eluate was measured by qPCR.
(In general: In qPCR the cycle at which signal appears reflects the starting amount.)
`C[C@H]1CN(c2cnc3[nH]ccc3n2)CC[C@H]1N(C)C(=O)Nc1cc(C(F)(F)F)cn(C)c1=O` [Example I-58-b, 1-methyl-1-((3S,4R)-3-methyl-1-(5H-pyrrolo[2,3-b]pyrazin-2-yl)piperidin-4-yl)-3-(1-methyl-2-oxo-5-(trifluoromethyl)-1,2-dihydropyridin-3-yl)urea] gave a Kd of less than 0.01 µM.
For the molecule `CN(C(=O)Nc1cc(C(F)(F)F)cn(C)c1=O)[C@H]1CCN(c2cnc3[nH]nc(OC[C@H]4COCCO4)c3c2)C[C@H]1F` [Example I-102-b, 1-((3R,4S)-1-(3-(((R)-1,4-dioxan-2-yl)methoxy)-1H-pyrazolo[3,4-b]pyridin-5-yl)-3-fluoropiperidin-4-yl)-1-methyl-3-(1-methyl-2-oxo-5-(trifluoromethyl)-1,2-dihydropyridin-3-yl)urea], the Kd was less than 0.01 µM.
For the molecule `Cn1cc(C(F)(F)F)cc(NC(=O)N2CC=CC23CCN(c2cnc4[nH]ccc4n2)CC3)c1=O` [Example I-78, N-(1-methyl-2-oxo-5-(trifluoromethyl)-1,2-dihydropyridin-3-yl)-8-(5H-pyrrolo[2,3-b]pyrazin-2-yl)-1,8-diazaspiro[4.5]dec-3-ene-1-carboxamide], the Kd was in the range of 0.01 to 0.05 µM.
Take `CN(C(=O)Nc1cc(C(F)(F)F)cn(C)c1=O)C1CCN(c2cnc3cncn3c2)CC1` [Example I-91, 1-(1-(imidazo[1,5-a]pyrimidin-3-yl)piperidin-4-yl)-1-methyl-3-(1-methyl-2-oxo-5-(trifluoromethyl)-1,2-dihydropyridin-3-yl)urea]: the dissociation constant (Kd) was 0.05 to 1 µM.
The value for `CN(C(=O)Nc1cc(C(F)(F)F)cn(C)c1=O)[C@H]1CCN(c2cnc3[nH]n(C)c(=O)c3c2)CC1(F)F` [Example I-96-b, (S)-1-(3,3-difluoro-1-(2-methyl-3-oxo-2,3-dihydro-1H-pyrazolo[3,4-b]pyridin-5-yl)piperidin-4-yl)-1-methyl-3-(1-methyl-2-oxo-5-(trifluoromethyl)-1,2-dihydropyridin-3-yl)urea] was less than 0.01 µM.
The molecule `CC(=O)Nc1cnc(N2CC[C@@H](N(C)C(=O)Nc3cc(C(F)(F)F)cn(C)c3=O)C[C@H]2C)cn1` [Example I-134-b, N-(5-((2R,4R)-2-methyl-4-(1-methyl-3-(1-methyl-2-oxo-5-(trifluoromethyl)-1,2-dihydropyridin-3-yl)ureido)piperidin-1-yl)pyrazin-2-yl)acetamide] registered a Kd of 0.01 to 0.05 µM.
As for `CC(=O)Nc1cnc(N2CCC(CC(=O)Nc3cc(CN4CCN(C)CC4)cc(C(F)(F)F)c3)CC2)cn1` [Example I-7, 2-(1-(5-acetamidopyrazin-2-yl)piperidin-4-yl)-N-(3-((4-methylpiperazin-1-yl)methyl)-5-(trifluoromethyl)phenyl)acetamide], the figure is 1 to 5 µM; as for `CO[C@H]1CN(c2cnc3[nH]ncc3c2)CC[C@H]1N(C)C(=O)Nc1cc(C(F)(F)F)cn(C)c1=O` [Example I-88-a, 1-((3S,4R)-3-methoxy-1-(1H-pyrazolo[3,4-b]pyridin-5-yl)piperidin-4-yl)-1-methyl-3-(1-methyl-2-oxo-5-(trifluoromethyl)-1,2-dihydropyridin-3-yl)urea], less than 0.01 µM.
The molecule `COCc1cc2nc(N3CC[C@H](N(C)C(=O)Nc4cc(C(F)(F)F)cn(C)c4=O)C[C@@H]3C)cnc2[nH]1` [Example I-127-a, 1-((2S,4S)-1-(6-(methoxymethyl)-5H-pyrrolo[2,3-b]pyrazin-2-yl)-2-methylpiperidin-4-yl)-1-methyl-3-(1-methyl-2-oxo-5-(trifluoromethyl)-1,2-dihydropyridin-3-yl)urea] displayed a Kd of 0.05 to 1 µM.
In the case of `CNc1cn2ncc(N3CCC(N(C)C(=O)Nc4cc(C(F)(F)F)cn(C)c4=O)CC3)c2cn1` [Example I-92, 1-methyl-3-(1-methyl-2-oxo-5-(trifluoromethyl)-1,2-dihydropyridin-3-yl)-1-(1-(6-(methylamino)pyrazolo[1,5-a]pyrazin-3-yl)piperidin-4-yl)urea], the Kd lay within 0.01 to 0.05 µM.
`CN(C(=O)Nc1cc(C(F)(F)F)cn(C)c1=O)[C@H]1CCN(c2cnc3[nH]ccc3n2)C[C@H]1F` [Example I-64-b, 1-((3R,4S)-3-fluoro-1-(5HI-pyrrolo[2,3-b]pyrazin-2-yl)piperidin-4-yl)-1-methyl-3-(1-methyl-2-oxo-5-(trifluoromethyl)-1,2-dihydropyridin-3-yl)urea] yielded a dissociation constant Kd of less than 0.01 µM.
In turn, `CC(=O)Nc1cnc(C2=CC[C@@H](N(C)C(=O)Nc3cc(C(F)(F)F)cn(C)c3=O)CC2)cn1` [Example I-140-a, (S)—N-(5-(4-(1-methyl-3-(1-methyl-2-oxo-5-(trifluoromethyl)-1,2-dihydropyridin-3-yl)ureido)cyclohex-1-en-1-yl)pyrazin-2-yl)acetamide] registered a Kd of less than 0.01 µM.
The value for `CC(=O)Nc1cnc(N2CC[C@@H](N(C)C(=O)Nc3cc(C(F)(F)F)cn(C)c3=O)C(F)(F)C2)cn1` (single isomer, unassigned) [Example I-35-a] was less than 0.01 µM.
As for `CN(C(=O)Nc1cc(C(F)(F)F)cn(C)c1=O)[C@@H]1CCN(c2cnc3[nH]nc(OC[C@H]4COCCO4)c3c2)C[C@@H]1F` [Example I-102-a, 1-((3S,4R)-1-(3-(((R)-1,4-dioxan-2-yl)methoxy)-1H-pyrazolo[3,4-b]pyridin-5-yl)-3-fluoropiperidin-4-yl)-1-methyl-3-(1-methyl-2-oxo-5-(trifluoromethyl)-1,2-dihydropyridin-3-yl)urea], the figure is less than 0.01 µM; as for `CO[C@H]1CN(c2cnc3[nH]nc(N(C)C)c3c2)CC[C@@H]1N(C)C(=O)Nc1cc(C(F)(F)F)cn(C)c1=O` [Example I-115-b, 1-((3S,4S)-1-(3-(dimethylamino)-1H-pyrazolo[3,4-b]pyridin-5-yl)-3-methoxypiperidin-4-yl)-1-methyl-3-(1-methyl-2-oxo-5-(trifluoromethyl)-1,2-dihydropyridin-3-yl)urea], 0.05 to 1 µM.
In the case of `CN(C(=O)Nc1cc(C(F)(F)F)cn(C)c1=O)[C@H]1CC=C(c2cnc3[nH]ccc3n2)CC1` (single isomer, unassigned) [Example I-82-b], the dissociation constant Kd is less than 0.01 µM.
`COc1n[nH]c2ncc(N3CC[C@H](N(C)C(=O)Nc4cc(C(F)(F)F)cn(C)c4=O)[C@@H](F)C3)cc12` [Example I-84-a, 1-((3S,4S)-3-fluoro-1-(3-methoxy-1H-pyrazolo[3,4-b]pyridin-5-yl)piperidin-4-yl)-1-methyl-3-(1-methyl-2-oxo-5-(trifluoromethyl)-1,2-dihydropyridin-3-yl)urea] displayed a Kd of less than 0.01 µM.
For `CC(=O)Nc1ccc(N2CCC(N(C)C(=O)Nc3cc(C(F)(F)F)cn(C)c3=O)CC2)cn1` [Example I-20, N-(5-(4-(1-methyl-3-(1-methyl-2-oxo-5-(trifluoromethyl)-1,2-dihydropyridin-3-yl)ureido)piperidin-1-yl)pyridin-2-yl)acetamide], the dissociation constant Kd was less than 0.01 µM.
The value for `CN(C(=O)Nc1cc(C(F)(F)F)cn(C)c1=O)[C@@H]1C[C@@H]2C[C@H]1CN2c1cnc(NC(=O)C2CC2)cn1` (single isomer, unassigned) [Example I-44-a] was 0.01 to 0.05 µM; that for `CO[C@H]1C[C@@H](n2[nH]c3ncc(N4CCC(N(C)C(=O)Nc5cc(C(F)(F)F)cn(C)c5=O)CC4)cc3c2=O)C1` [Example I-130, 1-(1-(2-((1s,3s)-3-methoxycyclobutyl)-3-oxo-2,3-dihydro-1H-pyrazolo[3,4-b]pyridin-5-yl)piperidin-4-yl)-1-methyl-3-(1-methyl-2-oxo-5-(trifluoromethyl)-1,2-dihydropyridin-3-yl)urea] was 0.05 to 1 µM.
